{"source": "patent US20250263370A1", "about": "(Tay Therapeutics Limited, priority 2022, published 2025)", "system": "collagen-induced arthritis", "experiment": "Collagen-induced arthritis (CIA) model in rats: body weight, paw volume, clinical scores, clinical observations", "details": "CIA rats", "key": {"[1]": {"details": "10 mg/kg twice daily P.O. (group 6), day 21"}, "[2]": {"details": "30 mg/kg twice daily P.O. (group 7)"}, "[3]": {"details": "30 mg/kg twice daily P.O. (group 7), day 15"}, "[4]": {"details": "30 mg/kg twice daily P.O. (group 7), day 19"}, "[5]": {"details": "30 mg/kg twice daily P.O. (group 7), day 21"}}, "note": "Values joined by “and” are separate entries in the source; they are usually repeats but may differ in a detail not shown here. Equal entries are not always repeated. “Also recorded” adds a separate entry of the source.", "data": [{"smiles": "CNC(=O)c1[nH]c(C(=O)NC2CCC2)cc1O[C@@H](C)c1ccccc1", "note": "(stereo in doubt) [Example 101, N^5-cyclobutyl-N^2-methyl-3-(1-phenylethoxy)-1H-pyrrole-2,5-dicarboxamide]", "values": [{"measurement": "animals with a score of 2 on one hind limb and no score on the other hind limb", "setting": "[1]", "value": "1/8"}, {"measurement": "animals with scores of 1 or 2 on both hind limbs", "setting": "[1]", "value": "2/8"}, {"measurement": "animals with scores of 3 on each hind limb", "setting": "[1]", "value": "3/8"}, {"measurement": "animals with scores of 4 on one or more hind limbs", "setting": "10 mg/kg twice daily P.O. (group 6), days 19 and 21", "value": "2/8"}, {"measurement": "paw volume increase at plateau relative to day 0", "setting": "10 mg/kg twice daily P.O. (group 6), plateau at day 18", "value": "approximately 50%"}, {"measurement": "Average animal paw volume percent change", "setting": "10 mg/kg, Day 0, left hind paw (L)", "value": 0.00, "unit": "%"}, {"measurement": "Animal paw volume Day 0 L", "setting": "10 mg/kg, Day 0, left paw, individual animals", "value": "1.39 mL and 1.26 mL (2×) and 1.29 mL (2×) and 1.31 mL and 1.30 mL and 1.37 mL"}, {"measurement": "Average animal paw volume percent change", "setting": "10 mg/kg, Day 0, right hind paw (R)", "value": 0.00, "unit": "%"}, {"measurement": "Animal paw volume Day 0 R", "setting": "10 mg/kg, Day 0, right paw, individual animals", "value": "1.41 mL and 1.26 mL (2×) and 1.30 mL (3×) and 1.31 mL and 1.37 mL"}, {"measurement": "Average animal paw volume percent change", "setting": "10 mg/kg, Day 6, left hind paw (L)", "value": 1.14, "unit": "%"}, {"measurement": "Animal paw volume Day 6 L", "setting": "10 mg/kg, Day 6, left paw, individual animals", "value": "1.41 mL and 1.23 mL and 1.31 mL and 1.33 mL and 1.34 mL and 1.35 mL and 1.37 mL and 1.26 mL"}, {"measurement": "Average animal paw volume percent change", "setting": "10 mg/kg, Day 6, right hind paw (R)", "value": 0.87, "unit": "%"}, {"measurement": "Animal paw volume Day 6 R", "setting": "10 mg/kg, Day 6, right paw, individual animals", "value": "1.41 mL and 1.24 mL and 1.32 mL and 1.33 mL and 1.34 mL (2×) and 1.36 mL and 1.26 mL"}, {"measurement": "Average animal paw volume percent change", "setting": "10 mg/kg, Day 12, left hind paw (L)", "value": 7.61, "unit": "%"}, {"measurement": "Animal paw volume Day 12 L", "setting": "10 mg/kg, Day 12, left paw, individual animals", "value": "1.52 mL and 1.26 mL and 1.43 mL and 1.63 mL and 1.34 mL and 1.44 mL and 1.39 mL and 1.27 mL"}, {"measurement": "Average animal paw volume percent change", "setting": "10 mg/kg, Day 12, right hind paw (R)", "value": 7.98, "unit": "%"}, {"measurement": "Animal paw volume Day 12 R", "setting": "10 mg/kg, Day 12, right paw, individual animals", "value": "1.44 mL and 1.27 mL and 1.88 mL and 1.33 mL and 1.35 mL and 1.38 mL and 1.39 mL and 1.29 mL"}, {"measurement": "Average animal paw volume percent change", "setting": "10 mg/kg, Day 13, left hind paw (L)", "value": 16.61, "unit": "%"}, {"measurement": "Animal paw volume Day 13 L", "setting": "10 mg/kg, Day 13, left paw, individual animals", "value": "1.71 mL and 1.32 mL and 1.81 mL and 1.83 mL and 1.35 mL and 1.45 mL and 1.44 mL and 1.31 mL"}, {"measurement": "Average animal paw volume percent change", "setting": "10 mg/kg, Day 13, right hind paw (R)", "value": 10.89, "unit": "%"}, {"measurement": "Animal paw volume Day 13 R", "setting": "10 mg/kg, Day 13, right paw, individual animals", "value": "1.54 mL and 1.32 mL and 1.90 mL and 1.37 mL (2×) and 1.41 mL and 1.44 mL and 1.29 mL"}, {"measurement": "Average animal paw volume percent change", "setting": "10 mg/kg, Day 14, left hind paw (L)", "value": 30.15, "unit": "%"}, {"measurement": "Animal paw volume Day 14 L", "setting": "10 mg/kg, Day 14, left paw, individual animals", "value": "2.00 mL and 1.50 mL and 2.07 mL and 2.45 mL and 1.39 mL and 1.45 mL and 1.44 mL and 1.31 mL"}, {"measurement": "Average animal paw volume percent change", "setting": "10 mg/kg, Day 14, right hind paw (R)", "value": 21.45, "unit": "%"}, {"measurement": "Animal paw volume Day 14 R", "setting": "10 mg/kg, Day 14, right paw, individual animals", "value": "1.62 mL and 1.68 mL and 2.23 mL and 1.67 mL and 1.37 mL and 1.43 mL and 1.46 mL and 1.28 mL"}, {"measurement": "Average animal paw volume percent change", "setting": "10 mg/kg, Day 15, left hind paw (L)", "value": 40.41, "unit": "%"}, {"measurement": "Animal paw volume Day 15 L", "setting": "10 mg/kg, Day 15, left paw, individual animals", "value": "2.13 mL and 1.73 mL and 2.33 mL and 2.49 mL and 1.41 mL and 1.60 mL and 1.49 mL and 1.51 mL"}, {"measurement": "Average animal paw volume percent change", "setting": "10 mg/kg, Day 15, right hind paw (R)", "value": 34.05, "unit": "%"}, {"measurement": "Animal paw volume Day 15 R", "setting": "10 mg/kg, Day 15, right paw, individual animals", "value": "1.93 mL and 1.83 mL and 2.53 mL and 1.91 mL and 1.38 mL and 1.45 mL and 1.51 mL and 1.52 mL"}, {"measurement": "Average animal paw volume percent change", "setting": "10 mg/kg, Day 18, left hind paw (L)", "value": 59.21, "unit": "%"}, {"measurement": "Animal paw volume Day 18 L", "setting": "10 mg/kg, Day 18, left paw, individual animals", "value": "2.40 mL and 2.04 mL and 2.54 mL and 2.70 mL and 1.51 mL (2×) and 2.30 mL and 1.64 mL"}, {"measurement": "Average animal paw volume percent change", "setting": "10 mg/kg, Day 18, right hind paw (R)", "value": 54.15, "unit": "%"}, {"measurement": "Animal paw volume Day 18 R", "setting": "10 mg/kg, Day 18, right paw, individual animals", "value": "2.23 mL and 2.08 mL and 2.52 mL and 2.74 mL and 1.59 mL and 1.91 mL and 1.58 mL and 1.51 mL"}, {"measurement": "Average animal paw volume percent change", "setting": "10 mg/kg, Day 19, left hind paw (L)", "value": 58.75, "unit": "%"}, {"measurement": "Animal paw volume Day 19 L", "setting": "10 mg/kg, Day 19, left paw, individual animals", "value": "2.38 mL and 2.04 mL and 2.49 mL and 2.64 mL and 1.48 mL and 2.32 mL and 1.65 mL and 1.60 mL"}, {"measurement": "Average animal paw volume percent change", "setting": "10 mg/kg, Day 19, right hind paw (R)", "value": 54.16, "unit": "%"}, {"measurement": "Animal paw volume Day 19 R", "setting": "10 mg/kg, Day 19, right paw, individual animals", "value": "2.36 mL and 2.05 mL and 2.47 mL and 2.71 mL and 1.58 mL and 1.87 mL and 1.57 mL and 1.56 mL"}, {"measurement": "Average animal paw volume percent change", "setting": "10 mg/kg, Day 21, left hind paw (L)", "value": 60.25, "unit": "%"}, {"measurement": "Animal paw volume Day 21 L", "setting": "10 mg/kg, Day 21, left paw, individual animals", "value": "2.38 mL and 2.03 mL and 2.48 mL and 2.64 mL and 1.48 mL and 2.33 mL and 1.83 mL and 1.60 mL"}, {"measurement": "Average animal paw volume percent change", "setting": "10 mg/kg, Day 21, right hind paw (R)", "value": 59.20, "unit": "%"}, {"measurement": "Animal paw volume Day 21 R", "setting": "10 mg/kg, Day 21, right paw, individual animals", "value": "2.35 mL and 2.04 mL and 2.46 mL and 2.68 mL and 1.58 mL and 2.15 mL and 1.82 mL and 1.62 mL"}, {"measurement": "animals that never showed signs of disease", "setting": "[2]", "value": "one animal"}, {"measurement": "average clinical score relative to CIA + vehicle (group 2)", "setting": "[2]", "value": "significantly decreased (p<0.01) relative to animals in group 2 on days 18, 19 and 21"}, {"measurement": "average overall clinical score at plateau", "setting": "[2]", "value": 4}, {"measurement": "day on which paw volume noticeably increased", "setting": "[2]", "value": "~19", "unit": "days"}, {"measurement": "effect on hind paw volume", "setting": "[2]", "value": "most effective dose at preventing an increase in paw volume; also recorded: Paw volume increases were delayed; also recorded: proved most effective"}, {"measurement": "paw volume increase at plateau relative to day 0", "setting": "[2]", "value": "approximately 35%"}, {"measurement": "paw volume relative to CIA + vehicle (group 2)", "setting": "[2]", "value": "significantly reduced relative to group 2 at day 15 (left paw, p<0.05) and days 18, 19, 21 (both paws, p<0.01)"}, {"measurement": "animals exhibiting signs of disease", "setting": "30 mg/kg twice daily P.O. (group 7), day 12", "value": "One animal"}, {"measurement": "animals exhibiting disease", "setting": "[3]", "value": "4/8"}, {"measurement": "animals with a score of 2 on one hind limb", "setting": "[3]", "value": "2/8"}, {"measurement": "animals exhibiting disease", "setting": "30 mg/kg twice daily P.O. (group 7), day 16", "value": "5/8"}, {"measurement": "animals with scores of 2 or 3 on both hind limbs", "setting": "30 mg/kg twice daily P.O. (group 7), day 18", "value": "3/8"}, {"measurement": "animals exhibiting disease", "setting": "[4]", "value": "7/8"}, {"measurement": "animals with a score of 2 or 3 on both hind limbs", "setting": "[4]", "value": "4/8"}, {"measurement": "animals with a clinical score of 3 on both hind limbs", "setting": "[5]", "value": "4/8"}, {"measurement": "animals with a score of 1 on one or both hind limbs", "setting": "[5]", "value": "3/8"}, {"measurement": "animals with no clinical score", "setting": "[5]", "value": "1/8"}, {"measurement": "Average animal paw volume percent change", "setting": "30 mg/kg, Day 0, left hind paw (L)", "value": 0.00, "unit": "%"}]}]}
